Assay results reported in US7572436B1, “Thionin as an antineoplastic and immunostimulant” (priority 2000, dated 2009).
Where no end group is shown, it is not given here.

Columns and labels:
Balb C splenocytes = test: Mitogen assay (^3H-thymidine uptake), murine splenocytes; format: cell-based; settings: for Cpm, standard mitogen assay: 0.1 μg/ml PT
non-adherent human PBLs = test: Mitogen assay (^3H-thymidine uptake), human PBLs; format: cell-based; settings: PT 0.01 μg/ml
Text: Murine spleen cells or human peripheral blood lymphocytes (PBLS) were obtained aseptically as described herein for use in the mitogen assay. When murine splenocytes were used, they were first treated with red cell lysing buffer (0.17 M Tris, 0.144 NH4C1, pH 7.2), washed in RPMI-10 (standard RPMI growth medium, Sigma Chemical Co., St. Louis, Mo., supplemented with 10% fetal bovine serum) and viable cells counted using Trypan Blue exclusion. Human PBLs were isolated from blood using HISTOPAQUE™-1077, a solution of FICOLL™ and sodium diatrizoate (Sigma Chemical Co., St. Louis, Mo.), and subsequent washings with RPMI-5 (RPMI supplemented with 5% fetal bovine serum) to remove platelets. Isolated lymphocytes were resuspended in RPMI-10 and a viable cell yield determined by Trypan Blue exclusion.
Drugs and known mitogenic controls were added in triplicate to a 96-well flat bottom microplate aseptically. The culture medium was RPMI-10. Splenocytes or human-lymphocytes were added at a concentration of 3-4×10^5 cells/well, to a final volume of 200 μl/well. The assay plate was incubated at 37° C. in a 5% CO2 humidified incubator. At 48-50 hours, ^3H-thymidine was added (1 μCi/well), and the plate was harvested approximately 16-18 hours later.
Mitogen assay microplates were harvested using an Inotech plate harvester (Inotech Biosystems International, Inc., Rockville, Md.). Counts per minute (cpm) per well were measured using the Berthold-Inotech Trace 96-plate reader (Inotech AT, Wohlen, Switzerland) and/or a scintillation counter (Packard Tri-carb 2100TR, Packard Instrument Co., Meriden, Conn.). Mitogenic activity was directly determined by comparing cpm levels to controls.
To test whether PT stimulates mitogen activity, splenocytes were incubated for two days with IL-2 (50 units/ml) or KLH (20 μg/ml) in conjunction with PT in the concentrations shown. Figures represent the radioactivity counts of tritiated thymidine taken up during a subsequent 20-hour incubation period of cells incubated with tritiated thymidine in RPMI.

For “Pyrularia thionin (KSCCRNTWARNCYNVCRLPGTISREICAKKCDCKIISGTTCPSDYPK; ends and bridges not checked; also: labeled with 125I) [PT]”, the “stimulation of the mitogen reaction” value (Balb C splenocytes; 0.1 μg/ml (PT 20 nM; βME 40 nM)) was “modest”, the “Cpm, standard mitogen assay” value (Balb C splenocytes; GM-CSF (5 ng/ml)) was 822 Cpm and the “Cpm, standard mitogen assay” value (Balb C splenocytes; no GM-CSF) was 243 Cpm. The “CPM of tritiated thymidine incorporated” value (non-adherent human PBLs; RPMI) was 724 ± 212 CPM and the “CPM of tritiated thymidine incorporated” value (non-adherent human PBLs; RPMI + IL-2 50 units/ml) was 2,584 ± 527 CPM.
